“Also recorded” adds a separate entry of the source.
Experiments:
[1] = test system: SH-SY5Y cells overexpressing unlabeled wild-type (WT) αSN; assay: CytoTox-Glo cytotoxicity assay: rescue of αSN-induced cytotoxicity; format: cell-based, human
Protocol: Hit compounds were evaluated for rescue of αSN-induced cytotoxicity in using an SH-SY5Y neuroblastoma cell model of alpha-synucleinopathy[18],[69]–[72]. […] A seven-point CRC for RO, BAY, DEM, and Anle138b (positive control compound[41],[73]) was performed to determine IC50 for each compound. […]
Cell cytotoxicity was measured using the CytoTox-Glo (Promega Corporation) Luminescence Assay Kit. SH-SY5Y human neuroblastoma cells were plated at a density of 5 × 10^6 cells/plate in 100 mm plate (Corning) and transfected with unlabeled WT αSN or equivalent vector-only control for 24 h. The transfected cells were then plated at a density of 5000 cells/well in white solid 96-well plate (Corning) with a total volume of 100 μL, followed by treatment with hit compounds spanning a range of concentrations (0.1 nM to 100 μM), as well as DMSO-only controls, for another 48 h. After incubation, 50 μL of CytoTox-Glo Cytotoxicity Assay Reagent was added to all wells followed by mixing by orbital shaking and incubation in the dark for 15 min at RT. Luminescence readings were measured using a Cytation3 Cell Imaging Multi-Mode Reader luminometer (BioTek). After the first read, 50 μL of Lysis Reagent was added, incubated for 15 min at RT, and a second read performed. Total viable cellular luminance was determined by the difference between the first and second luminescence signal and total cellular viability is determined by normalizing to the no-treatment samples.

[2] = target: T1, WT αSN oligomer (inter-protomeric) FRET biosensor in HEK293 cells (Homo sapiens, UniProt P37840); assay: FLT dose response, WT oligomer (inter-protomeric) FRET biosensor; format: cell-based; conditions: 1 nM to 50 μM
T1 construct: In addition to full-length αSN fusion constructs, we observe both C-terminally and N-terminally truncated αSN species; expressed in transfected cells; host or cells: HEK293
Protocol: (§1) Hits from the pilot HTS of the LOPAC library were selected and dispensed into 384-well plates to verify reproducible and specific FLT trends using the WT and A53T oligomer (inter-protomeric) FRET biosensors. Figure 6 presents a subset of these dose-response curves for hit compounds RO, BAY, SB206553, and DEM, along with known control compound EGCG. […] Assay quality was determined by Z′ (Eq. 2) where a Z′ > 0.5 indicates good assay quality. Using EGCG as control compound and the hit DEM, we calculated Z′ value of 0.76 and 0.66, respectively, indicating excellent assay quality.
(§2) Fig. 6 FRET dose response of pilot HTS hits. A subset of hits were evaluated using both WT (a) and A53T (b) oligomer biosensor to verify both increased FLT (disrupting αSN–αSN interactions) and decreased FLT (tighter aggregation or remodeled oligomers).
(§3) Compounds were tested in a FLT dose-response assay. The compound was dissolved to 10 mM in DMSO, then serially diluted in 96-well mother plates. Each hit was re-screened for FLT dose response across eight concentrations (1 nM to 50 μM). Compounds (0.5 μL) were transferred from mother plates into assay plates using a Mosquito HV liquid handler (TTP Labtech Ltd, UK). The preparations for αSN FRET biosensors were carried out as above.

[3] = target: T2, A53T αSN oligomer (inter-protomeric) FRET biosensor in HEK293 cells (Homo sapiens, UniProt P37840, A53T); assay: FLT dose response, A53T oligomer (inter-protomeric) FRET biosensor; format: cell-based; conditions: 1 nM to 50 μM
T2 construct: In addition to full-length αSN fusion constructs, we observe both C-terminally and N-terminally truncated αSN species; expressed in transfected cells; host or cells: HEK293
Protocol: as §1, §2, §3

[4] = target: T3, αSN (15 μM monomeric αSN doped with 5% αSN PFF seeds) (Homo sapiens, UniProt P37840); assay: Seeded Thioflavin-T aggregation assay; format: biochemical; conditions: 15 μM αSN monomer + 5% PFF; for IC50: 37 °C, max ThT intensity
T3 construct: made in house; host or cells: Escherichia coli BL21(DE3), T7-7 plasmid
Protocol: Figure 11 and Supplementary Fig. 23 present results from a dose-response-seeded aggregation assay. Vehicle, control, and hit compounds were incubated with 15 µM αSN(m), doped with 5% freshly sonicated αSN PFF in PBS under mild agitation (Supplementary Fig. 23a). […] Titration of control and hit compounds were run in triplicate; representative traces of hit compounds are illustrated in Fig. 11a with a full summary of each titration detailed in Supplementary Fig. 23c–h. IC50 was determined for each compound by determining the max ThT intensity for each concentration (Fig. 11b).
Seeded ThT aggregation assay was performed using 15 μM monomeric αSN doped with 5% (0.75 μM sonicated αSN pre-formed fibril (PFF) seeds) in a 384-well plate under slow agitation (300 RPM) at 37 °C. a Control samples for the aggregation include PBS (black), αSN monomer (brown), 5% αSN PFF (red), and the 15 μM monomer+5% PFF mixture (orange). Dose-response curves were made with a titration of compounds. […] In contrast, RO and DEM both show potent effects relative to Baicalin and EGCG controls. BAY does have some response, but it lags behind other hit compounds. b Normalizing the initial peak in ThT data allows us to estimate an IC50 for each hit. […] Although there is a small trend with BAY, the data cannot be fit to resolve an IC50.
ThT (Sigma, product no. T3516) was dissolved in PBS buffer and was filtered through a 0.2-µm syringe filter to make a stock solution of 2.5 mM. Working ThT concentration was 20 µM. PFF seeds were produced via constant agitation of 1000 RPM at 37 °C (ThermoMixer-C, Eppendorf, Hauppauge, NY) of 500 µL of 350 µM αSN in PBS in a 2 mL tube for 5 days. PFFs were aliquoted and flash frozen and stored at −80 °C until further use. PFF seeds were rapidly thawed, diluted to 35 µM in PBS, and sonicated 120 pulses at 50% using a probe-tip sonicator following the established protocols. Master mix samples for each of the different ThT assays were prepared and dispensed in triplicate as 50 µL in 384-well flat, black-bottom polypropylene plates (PN 781209, Greiner Bio-One) and sealed with fluorescently transparent film. Conditions for non-seeded, seeded, and cell homogenate assays varied slightly.
Seeded ThT experiments were performed at a lower monomer concentration to preclude spontaneous αSN aggregation during the time course of the experiment. For both seeded and cell homogenate experiments, sample were prepared in PBS + 20 µM ThT with or without 15 µM αSN(m) +/− 5% PFF (0.75 µM). Additional control samples of 15 µM PFF and 0.75 µM PFF were also prepared. All empty wells were filled with PBS for a thermal sink and to help prevent evaporation. Assay plates were prepared as pre-cellular FRET dose response above. Dose response was done across 8 concentrations (10 nM to 50 µM). The assay was run at 37 °C with mild shaking (200 RPM) in a Cytation3 plate reader. The ThT fluorescence was monitored with excitation filter of 450 nm and emission filter of 490 nm. Readings were acquired every 20 min for a minimum of 24 h. Seeded ThT aggregation IC50 values were determined by first normalizing all ThT curves to the maximal signal at plateau for the αSN + 5% PFF + DMSO samples. The normalized fluorescence at each concentration was fit to the Hill equation to resolve an effective IC50 of seeded aggregation inhibition.

αSN oligomerization = test system: αSN oligomerization; parameters: method as in PMID 23604588; conditions: read-out: apparent EC50, inhibition of αSN oligomerization; cited from earlier work
[5] = target: T4, intra-protomeric αSN biosensor (GFP-αSN-RFP) in HEK293 cells (Homo sapiens, UniProt P37840); assay: FRET response on intra-protomeric αSN biosensor; format: cell-based; conditions: 10 µM
T4 construct: In addition to full-length αSN fusion constructs, we observe both C-terminally and N-terminally truncated αSN species; expressed in transfected cells; host or cells: HEK293
Protocol: Hits were also evaluated with the intra-protomeric αSN and control, non-specific biosensors. […] The compounds RO, BAY, and DEM as well as the control EGCG each reduced FRET, indicating either reduction in oligomerization or expanded oligomer conformation. Tests of these compounds in two control biosensor systems (GFP/RFP at 1:8 and GFP-linker32-RFP; see Supplementary Fig. 13a, b, respectively) show no significant FRET change.
Fig. 7 FRET response to pilot HTS hits on intra-protomeric αSN biosensor. […] With both donor and acceptor XFP fused to one construct, this biosensor is sensitive to both oligomer formation as well as conformation. […] Experiments were performed with n = 3; *p < 0.05, **p < 0.01, ***p < 0.001, ns indicates no significant difference as determined by Student’s t test.

αSN oligomers = target: T5, αSN oligomers (Homo sapiens, UniProt P37840); assay: ThT content (β-sheet) of αSN oligomers after oligomerization assay; format: biochemical; conditions: 70 μM compound (1:5 compound:monomer), 12 h oligomerization; vs DMSO
T5 construct: made in house; host or cells: Escherichia coli BL21(DE3), T7-7 plasmid
Protocol: To explore the presence of β-sheet content in these oligomers, an aliquot was removed prior to cross-linking, diluted into 100 μM ThT working solution, and ThT fluorescence was monitored to detect the presence of β-sheet. Supplementary Fig. 22 presents each sample ThT content normalized to the PFF signal. We observed an increased ThT content in the αSN oligomers (αS-O) that was not affected by DMSO (vehicle) treatment.
A 10-μL aliquot from each sample was taken and diluted with 290 μL ThT working solution (100 μM ThT in PBS) and dispensed into 3 wells of a 384-well, black opaque plate. Additional samples of PBS, αSN(m), and αSN PFF were used as controls. Plates were incubated at ambient temperature for 10 min and then fluorescence read at 450ex/490em on a Spectromax-i3x (Molecular Devices).
Supplemental Figure 22. Characterization of β-sheet content in αSN oligomers due to hit compound
After the 12-hour oligomerization assay aliquots of each sample were
removed and diluted in 100μM ThT and fluorescence read in triplicate (450ex/490em) in 384-well plates. The
ThT signal was normalized to a signal from previously frozen αSN PFF aliquots. After completion of the
PFF, green bar) and the ThT signal was not affected by DMSO (red bar). Oligomerization in the presence of
control compounds, EGCG and Baicalin, at 70μM (a sub-stoichiometric,1:5 compound: monomer ratio)
Our hit compounds RO, DEM, and BAY had differential effects with
both DEM and BAY resulting in increased ThT content and RO not producing a significant change relative to
(1 picture or pasted object on this page, not shown here)

[6] = test system: inter-protomeric and intra-protomeric αSN FRET biosensors in HEK293 cells; assay: Pilot HTS of the LOPAC library, fluorescence lifetime (FLT) of cellular αSN FRET biosensors; format: cell-based, human; conditions: 10 µM compound, 90 min; hit = FLT change >5 SD
Protocol: Prior to each pilot HTS, FLT and emission spectrum were measured to verify signal level, basal FRET, coefficient of variance (CV), and similarity index. For each HTS, cells were dispensed into compound plates—1536-well (10 µL/well)—and incubated with the compounds (10 µM) or dimethyl sulfoxide (DMSO; 1%) for 90 min. FLT measurements were acquired with the FLT-PR. After deconvolving the instrument response function, a single exponential fit was used to determine the FLT for both the αSN cellular FRET biosensor (τDA) and the donor-only control biosensor (τD). FRET efficiency was determined by Eq. 1. CV was determined from control plates (N = 384 wells).
Fluorescent compounds (FC) were flagged using a spectral similarity index filter, which evaluates the ratio of intensity from two bandwidths that span the donor emission spectrum and are excluded as potential false positives[45],[46],[49],[51],[66]. […] Compounds that changed FLT by >5 standard deviations (SD) were considered hits (Fig. 5, red data points).
On each day of screening, the compound plates were equilibrated to room temperature (RT; 25 °C). The cells were harvested from the 100-mm plates by incubating with TrypLE (Invitrogen) for 2 min, washed three times in PBS by centrifugation at 200 × g, and filtered using 70-μm cell strainers (BD Falcon). Cell viability prior to screen was assessed using a trypan blue assay and confirmed to be >80%. Cells were diluted to 1.5E6 cells/mL. Expression of GFP-αSN and the αSN biosensors were confirmed by fluorescence microscopy prior to each screen (EvosFL-Auto microscope, Thermo Fisher Scientific, USA). During screening, cells (50 μL/well for 384-well; 10 μL/well for 1536-well) were dispensed by a Multidrop Combi liquid dispenser (Thermo, Pittsburg, PA, USA) into the assay plates containing the compounds and allowed to incubate at RT for 90 min before recording with the FLT-PR or SUPR (both instruments manufactured by Fluorescence Innovations Inc., both owned and provided by Photonic Pharma LLC), as described previously[46].
Interfering compounds were flagged as potential false positives by a set of stringent FC filters based on spectral analysis of each well from the LOPAC screen[45],[46]. After removal of FCs, a histogram of the FLT distribution from all compounds in the screen was plotted and fit to a Gaussian curve to obtain the mean (µ) and SD (σ). A hit was defined as a compound that attenuated the FLT efficiency by >5σ relative to the mean µ (Supplementary Fig. 12).

[7] = test system: differentiated SH-SY5Y cells treated with sonicated human αSN PFF; assay: Differentiated SH-SY5Y cell model of αSN PFF pathology (pS129 immunoblot); format: cell-based; conditions: 50 μM Baicalin, 200 nM human PFF, 48 h
Protocol: SH-SY5Y cells were differentiated using reduced serum (3%) media supplemented with 10 μM retinoic acid for 3 days and then changed to serum-free media supplemented with 10 ng/mL brain-derived neurotrophic factor for the remainder of the experiment. Stock αSN PFFs were diluted and sonicated as described previously. SH-SY5Y cultures were then treated with 200 nM PFF and PBS, DMSO, 1 μM drug compound (RO, BAY, or DEM), or 50 μM Baicalin. After 48 h, SH-SY5Y were washed with PBS and harvested in cold lysis buffer with protease and phosphatase inhibitors, as previously described. Approximately 15 μg of total protein was loaded onto a 4–20% Criterion TGX midi gel and probed using Syn1 (BD Biosciences, #610787; 1° 1:5000; 2° 1:10K) and pS^129 aSyn (abcam, ab59264; 1° 1:1000; 2° 1:5000) and a-tubulin (abcam, ab4074; 1° 1:1000; 2° 1:10K) page 19: Supplemental Figure 18. […] Differentiated SH-SY5Y cells were treated with PBS, vehicle (DMSO) or compounds with and without 200nM sonicated human αSN PFFs. […] These will be removed in subsequent densitometry analysis. (b) Replicates of PFF +/- compound treatment were ran for immunoblot analysis of pS129 immunoreactivity. (c) Densitometry analysis was performed using ImageLab from BioRad. Total pS129 signal (excluding the non- specific bands) was normalized to tubulin loading control. […] Quantification is normalized per lane to highlight change in the ratio of different species. Note, oligomers quantification is plotted relative to the right-y- axis. All statistical comparisons were to DMSO treatment using two-tailed t-test with * p<0.05; ** p<0.01; *** p<0.005.

Molecule: SB206553
- rescue of αSN-induced cytotoxicity ([1]; dose response, 48-h exposure): no observed effect on cytotoxicity
- rescue of toxicity in three-dose preliminary screen ([1]; three-dose assay): no rescue of toxicity
- FLT trend in dose response [2]: increasing FLT trend; also recorded: mild recovery of FLT
- FLT trend in dose response [3]: increasing FLT trend; also recorded: mild recovery of FLT
- effect on seeded aggregation ([4]; titration up to 50 μM): no aggregation inhibition; also recorded: little to no effect on aggregation

Molecule: Brc1cccc(-c2cc(-c3ccc4c(c3)OCO4)[nH]n2)c1 [Anle138b]
- EC50 ([1]; Homo sapiens, SH-SY5Y, 72-h transfection, 48-h exposure to compound, seven-point CRC, read-out: EC50, protection of SH-SY5Y cells from αSN-induced death): 900 nM
- EC50 (αSN oligomerization): 2800 nM

Molecule: O=C(O[C@@H]1Cc2c(O)cc(O)cc2O[C@@H]1c1cc(O)c(O)c(O)c1)c1cc(O)c(O)c(O)c1 [EGCG]
- change in intra-protomeric FRET [5]: reduced FRET
- FLT trend in dose response [2]: reduced donor FLT
- FLT trend in dose response [3]: reduced donor FLT
- ThT signal of αSN oligomers (αSN oligomers): complete loss of ThT signal
- IC50 [4]: 1100 nM

Molecule: Cn1c(=O)c(-c2c(Cl)cccc2Cl)cc2cnc(Nc3ccc(N4CCOCC4)cc3)nc21 [PD173952]
- identified as hit in the LOPAC screen [6]: identified

Molecule: O=C(O)[C@H]1O[C@@H](Oc2cc3oc(-c4ccccc4)cc(=O)c3c(O)c2O)[C@H](O)[C@@H](O)[C@@H]1O [Baicalin]
- HMW pS129 signal [7]: strong HMW pS^129 signal
- LMW oligomer pS129 fraction [7]: significantly reduced
- ThT signal of αSN oligomers (αSN oligomers): complete loss of ThT signal
- IC50 [4]: 387 nM

Molecule: N#C/C(=C\c1ccc(-c2cc(Cl)ccc2Cl)o1)C(=O)Nc1cccc2ncccc12 [AGK2]
- identified as hit in the LOPAC screen [6]: identified

Molecule: O=C1Nc2cc(Br)ccc2/C1=C1/Nc2ccccc2/C1=N\O [Bio]
- identified as hit in the LOPAC screen [6]: identified

From paper PMC8238948, “Potent inhibitors of toxic alpha-synuclein identified via cellular time-resolved FRET biosensors” (NPJ Parkinson's Disease, 2021)
